Laboratory results: US20080269285A1, “Novel Compounds of the Family of Iminosugars, Uses Thereof for Trewating Lysosomal Diseases, and Method for Preparing Same” (CENTRE NATIONAL DE LA RECHERCHE SCIENTIFIQUE, priority 2005, published 2008)
Read-outs that look alike come from different tables or passages of the source. Values belong to the compound of their own block, whether it stands above or below them.

Legend:
maltase = test: Inhibition of rat intestinal maltase; assay type: biochemical; conditions: rat intestine; read-out: IC50 α-glucosidase maltase
Description: (§1) The α-glucosidases of rice and of yeast, as well as the β-glucosidases of sweet almond and Caldocellum saccharolyticum are obtained from Sigma Chemical Co. ‘Brush border’ membranes prepared from rat small intestine according to Kessler's method (Kessler, M.; Acuto, O.; Strelli, C.; Murer, H.; Semenza, G. A. Biochem. Biophys. Acta 1978, 506, 136) were used as a source of intestinal maltase, sucrase and isomaltase. The activities of rice α-glucosidase as well as of the intestinal glucosidases were determined using an appropriate disaccharide as substrate. The D-glucose thus released was assayed by colorimetry using the Wako glucose B-test (Wako Pure Chemical Ind., Japan). The activities on the other glycosidases were determined using the appropriate p-nitrophenyl glycoside as a substrate with the optimum pH of each enzyme. The reaction is stopped by adding 400 mM Na2CO3. The p-nitrophenol thus released was assayed by spectrophotometry at 400 nm. For the β-glucocerebrosidase, the technique used is that described in Kato, A.; Kato, N.; Kano, E.; Adachi, I.; Ikeda, K.; Yu, L.; Okamoto, T.; Banba, Y.; Ouchi, H.; Takahata, H.; Asano, N. Biological properties of D- and L-1-deoxyazasugars. J. Med. Chem. 2005, 48, 2036-2044.

sucrase = molecular target: T1, sucrase (Rattus norvegicus, UniProt P23739); test: Inhibition of rat intestinal sucrase; assay type: biochemical; conditions: rat intestine; read-out: IC50 α-glucosidase sucrase
T1 construct: from tissue; host or cells: rat small intestine brush border membranes
Description: as §1

[1] = system: human β-glucocerebrosidase; test: Intracellular β-glucocerebrosidase activity in fibroblasts of Gaucher patients (type 1, 2 or 3); assay type: cell-based; conditions: fibroblasts type 1, 2 or 3; very low quantities
α-Mannosidase = molecular target: T2, α-Mannosidase (Homo sapiens, UniProt O00754); test: α-Mannosidase activity in Gaucher fibroblasts; assay type: cell-based
T2 construct: endogenous in cells; host or cells: fibroblasts of Gaucher patients (type 1, 2, 3)
T2 sequence (O00754 50-1011): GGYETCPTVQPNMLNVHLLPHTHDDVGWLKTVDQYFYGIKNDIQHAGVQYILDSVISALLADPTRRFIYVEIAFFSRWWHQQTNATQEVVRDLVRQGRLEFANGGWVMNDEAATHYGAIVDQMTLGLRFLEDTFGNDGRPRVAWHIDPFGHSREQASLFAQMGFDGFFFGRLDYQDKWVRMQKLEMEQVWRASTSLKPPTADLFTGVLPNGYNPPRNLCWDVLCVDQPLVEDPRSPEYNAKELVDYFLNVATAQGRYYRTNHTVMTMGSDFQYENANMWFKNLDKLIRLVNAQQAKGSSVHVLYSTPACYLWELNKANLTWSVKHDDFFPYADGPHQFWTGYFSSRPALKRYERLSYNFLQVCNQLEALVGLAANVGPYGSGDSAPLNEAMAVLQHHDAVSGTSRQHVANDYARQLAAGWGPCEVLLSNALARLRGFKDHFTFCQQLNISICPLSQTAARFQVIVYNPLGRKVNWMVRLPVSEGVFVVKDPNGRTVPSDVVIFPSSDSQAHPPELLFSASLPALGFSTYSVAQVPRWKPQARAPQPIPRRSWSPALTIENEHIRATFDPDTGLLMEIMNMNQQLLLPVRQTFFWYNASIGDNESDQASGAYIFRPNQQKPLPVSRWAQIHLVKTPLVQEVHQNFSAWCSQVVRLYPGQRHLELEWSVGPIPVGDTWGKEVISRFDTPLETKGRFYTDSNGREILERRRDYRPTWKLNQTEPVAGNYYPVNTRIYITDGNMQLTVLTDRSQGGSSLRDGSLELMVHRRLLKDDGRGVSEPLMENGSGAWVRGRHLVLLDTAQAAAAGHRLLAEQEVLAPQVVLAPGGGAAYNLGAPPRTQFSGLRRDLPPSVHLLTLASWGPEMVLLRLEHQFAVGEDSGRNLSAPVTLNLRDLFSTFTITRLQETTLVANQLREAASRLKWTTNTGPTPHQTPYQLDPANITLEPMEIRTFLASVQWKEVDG
Protocol: (§2) The tests were carried out under the conditions described in: Sawkar, A. R.; Cheng, W.-C.; Beutler, E.; Wong, C.-H.; Balch, W. E.; Kelly, J. W. Chemical chaperones increase the cellular activity of N370S beta-glucosidase: a therapeutic strategy for Gaucher's disease. Proc. Natl. Acad. Sci. U.S.A. 2002, 99, 15428-15433.

β-glucocerebrosidase [2] = test: Intracellular β-glucocerebrosidase activity in type 1 Gaucher fibroblasts; assay type: cell-based, human; conditions: factor of residual β-glucocerebrosidase activity, 10 nM
[3] = system: other lysosomal glycosidases; test: Effects on other lysosomal glycosidases in Gaucher fibroblasts; assay type: cell-based, human; conditions: for Effects on the activity of other glycosidases: Gaucher fibroblasts, Table 2
α-glucosidases = test: Activity on the different α-glucosidases tested; assay type: biochemical
Description: as §1

β-glucocerebrosidase [4] = test: Intracellular β-glucocerebrosidase activity in type 3 Gaucher fibroblasts; assay type: cell-based, human; conditions: factor of residual β-glucocerebrosidase activity, 10 nM
rice α-glucosidase = molecular target: T3, rice α-glucosidase (Oryza sativa subsp. japonica, UniProt Q653V7); test: Inhibition of rice α-glucosidase (disaccharide substrate, glucose colorimetry); assay type: biochemical; conditions: rice enzyme
T3 construct: purchased Sigma Chemical Co
Description: as §1

[5] = molecular target: T4, β-glucosidase Caldocellum saccharolyticum (Caldicellulosiruptor saccharolyticus, UniProt P10482); test: Inhibition of Caldocellum saccharolyticum β-glucosidase; assay type: biochemical
T4 construct: purchased Sigma Chemical Co
Description: as §1

isomaltase = molecular target: T5, isomaltase (Rattus norvegicus, UniProt P23739); test: Inhibition of rat intestinal isomaltase; assay type: biochemical; conditions: rat intestine; read-out: IC50 α-glucosidase isomaltase
T5 construct: from tissue; host or cells: rat small intestine brush border membranes
Description: as §1

[6] = molecular target: T6, human β-glucocerebrosidase (Homo sapiens, UniProt P04062); test: Inhibition tests on human β-glucocerebrosidase; assay type: biochemical; conditions: for IC50: read-out: IC50 β-glucocérébrosidase
T6 sequence (P04062 40-536): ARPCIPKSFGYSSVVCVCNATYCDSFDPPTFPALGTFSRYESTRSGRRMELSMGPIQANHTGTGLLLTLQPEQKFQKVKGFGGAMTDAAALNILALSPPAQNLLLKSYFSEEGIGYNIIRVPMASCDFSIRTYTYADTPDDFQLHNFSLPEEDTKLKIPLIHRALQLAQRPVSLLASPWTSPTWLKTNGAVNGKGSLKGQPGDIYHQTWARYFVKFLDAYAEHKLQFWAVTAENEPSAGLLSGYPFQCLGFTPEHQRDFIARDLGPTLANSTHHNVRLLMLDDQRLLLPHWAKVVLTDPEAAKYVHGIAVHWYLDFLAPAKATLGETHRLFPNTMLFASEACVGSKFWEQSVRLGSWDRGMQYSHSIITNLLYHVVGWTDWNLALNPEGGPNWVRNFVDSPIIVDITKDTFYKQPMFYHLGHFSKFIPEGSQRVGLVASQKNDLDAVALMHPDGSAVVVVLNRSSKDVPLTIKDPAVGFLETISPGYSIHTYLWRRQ

[7] = molecular target: β-glucosidase sweet almond; test: Inhibition of sweet almond β-glucosidase; assay type: biochemical
Description: as §1

α-Glucosidase = molecular target: T7, α-Glucosidase (Homo sapiens, UniProt P10253); test: α-Glucosidase activity in Gaucher fibroblasts; assay type: cell-based
T7 construct: endogenous in cells; host or cells: fibroblasts of Gaucher patients (type 1, 2, 3)
Protocol: as §2

[8] = type 2 Gaucher fibroblasts, 50 μM

T4 sequence (P10482 whole entry): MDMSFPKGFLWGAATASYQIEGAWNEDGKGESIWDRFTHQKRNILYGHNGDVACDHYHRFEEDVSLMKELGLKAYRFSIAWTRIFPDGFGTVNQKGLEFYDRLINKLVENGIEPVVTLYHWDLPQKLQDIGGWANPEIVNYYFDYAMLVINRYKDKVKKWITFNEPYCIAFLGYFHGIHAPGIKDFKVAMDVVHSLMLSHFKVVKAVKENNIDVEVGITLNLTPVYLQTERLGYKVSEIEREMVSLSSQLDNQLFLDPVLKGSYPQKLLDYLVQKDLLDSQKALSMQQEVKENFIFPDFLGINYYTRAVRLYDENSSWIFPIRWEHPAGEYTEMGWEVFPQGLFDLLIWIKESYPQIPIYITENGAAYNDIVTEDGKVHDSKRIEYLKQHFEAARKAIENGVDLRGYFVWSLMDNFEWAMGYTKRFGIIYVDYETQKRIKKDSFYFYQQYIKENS
T1 sequence (P23739 1-1013 limits assumed): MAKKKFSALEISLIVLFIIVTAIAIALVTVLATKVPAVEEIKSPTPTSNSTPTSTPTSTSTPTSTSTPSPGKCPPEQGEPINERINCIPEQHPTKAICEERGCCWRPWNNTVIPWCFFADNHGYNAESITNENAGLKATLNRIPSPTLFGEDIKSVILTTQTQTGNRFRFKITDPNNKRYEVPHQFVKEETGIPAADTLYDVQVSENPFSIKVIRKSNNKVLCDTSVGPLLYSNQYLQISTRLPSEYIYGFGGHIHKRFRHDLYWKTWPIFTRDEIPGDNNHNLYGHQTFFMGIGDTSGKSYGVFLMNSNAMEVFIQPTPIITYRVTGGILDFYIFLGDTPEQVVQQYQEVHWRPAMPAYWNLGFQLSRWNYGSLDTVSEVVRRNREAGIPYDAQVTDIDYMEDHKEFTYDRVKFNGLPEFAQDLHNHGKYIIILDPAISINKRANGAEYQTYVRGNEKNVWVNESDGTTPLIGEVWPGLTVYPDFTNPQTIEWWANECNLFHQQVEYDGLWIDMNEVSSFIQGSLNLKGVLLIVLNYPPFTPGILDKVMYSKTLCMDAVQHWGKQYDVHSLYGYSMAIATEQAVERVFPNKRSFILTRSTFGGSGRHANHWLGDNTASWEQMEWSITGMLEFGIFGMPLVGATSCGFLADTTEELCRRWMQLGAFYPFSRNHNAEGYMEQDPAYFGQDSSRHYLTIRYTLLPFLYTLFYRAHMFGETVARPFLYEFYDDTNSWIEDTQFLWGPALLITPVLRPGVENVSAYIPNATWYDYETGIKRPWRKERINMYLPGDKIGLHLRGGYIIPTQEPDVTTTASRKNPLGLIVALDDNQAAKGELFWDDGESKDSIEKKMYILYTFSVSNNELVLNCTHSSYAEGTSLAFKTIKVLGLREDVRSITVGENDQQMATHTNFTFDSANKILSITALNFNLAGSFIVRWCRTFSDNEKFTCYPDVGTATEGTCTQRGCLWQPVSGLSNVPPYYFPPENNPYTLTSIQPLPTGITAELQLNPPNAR
T1 sequence (P23739 1014-1841 limits assumed): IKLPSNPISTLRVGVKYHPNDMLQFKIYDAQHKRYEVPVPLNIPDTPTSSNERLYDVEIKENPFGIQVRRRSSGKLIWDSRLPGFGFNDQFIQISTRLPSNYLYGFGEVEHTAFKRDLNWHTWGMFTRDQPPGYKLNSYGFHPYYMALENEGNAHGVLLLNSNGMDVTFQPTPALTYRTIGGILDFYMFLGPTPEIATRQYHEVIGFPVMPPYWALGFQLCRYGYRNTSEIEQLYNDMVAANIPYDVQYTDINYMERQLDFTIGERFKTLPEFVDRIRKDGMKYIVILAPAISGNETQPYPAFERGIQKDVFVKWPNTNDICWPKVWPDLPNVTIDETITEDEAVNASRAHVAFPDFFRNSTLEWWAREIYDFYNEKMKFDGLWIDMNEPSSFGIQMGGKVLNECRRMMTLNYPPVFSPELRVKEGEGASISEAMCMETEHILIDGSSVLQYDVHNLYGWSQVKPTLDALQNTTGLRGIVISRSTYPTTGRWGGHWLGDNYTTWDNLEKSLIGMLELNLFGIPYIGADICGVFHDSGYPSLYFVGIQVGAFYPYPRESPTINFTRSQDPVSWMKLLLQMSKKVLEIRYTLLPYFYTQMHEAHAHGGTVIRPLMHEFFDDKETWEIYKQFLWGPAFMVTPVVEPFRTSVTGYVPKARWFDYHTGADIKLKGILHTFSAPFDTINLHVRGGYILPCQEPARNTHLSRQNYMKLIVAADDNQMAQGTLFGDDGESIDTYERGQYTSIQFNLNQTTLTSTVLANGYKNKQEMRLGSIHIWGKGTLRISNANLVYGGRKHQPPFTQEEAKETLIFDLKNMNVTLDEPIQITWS
T5 sequence (P23739 1-1013 limits assumed): as the sequence (P23739 1-1013 limits assumed) above
T5 sequence (P23739 1014-1841 limits assumed): as the sequence (P23739 1014-1841 limits assumed) above
T3 sequence (Q653V7 34-885): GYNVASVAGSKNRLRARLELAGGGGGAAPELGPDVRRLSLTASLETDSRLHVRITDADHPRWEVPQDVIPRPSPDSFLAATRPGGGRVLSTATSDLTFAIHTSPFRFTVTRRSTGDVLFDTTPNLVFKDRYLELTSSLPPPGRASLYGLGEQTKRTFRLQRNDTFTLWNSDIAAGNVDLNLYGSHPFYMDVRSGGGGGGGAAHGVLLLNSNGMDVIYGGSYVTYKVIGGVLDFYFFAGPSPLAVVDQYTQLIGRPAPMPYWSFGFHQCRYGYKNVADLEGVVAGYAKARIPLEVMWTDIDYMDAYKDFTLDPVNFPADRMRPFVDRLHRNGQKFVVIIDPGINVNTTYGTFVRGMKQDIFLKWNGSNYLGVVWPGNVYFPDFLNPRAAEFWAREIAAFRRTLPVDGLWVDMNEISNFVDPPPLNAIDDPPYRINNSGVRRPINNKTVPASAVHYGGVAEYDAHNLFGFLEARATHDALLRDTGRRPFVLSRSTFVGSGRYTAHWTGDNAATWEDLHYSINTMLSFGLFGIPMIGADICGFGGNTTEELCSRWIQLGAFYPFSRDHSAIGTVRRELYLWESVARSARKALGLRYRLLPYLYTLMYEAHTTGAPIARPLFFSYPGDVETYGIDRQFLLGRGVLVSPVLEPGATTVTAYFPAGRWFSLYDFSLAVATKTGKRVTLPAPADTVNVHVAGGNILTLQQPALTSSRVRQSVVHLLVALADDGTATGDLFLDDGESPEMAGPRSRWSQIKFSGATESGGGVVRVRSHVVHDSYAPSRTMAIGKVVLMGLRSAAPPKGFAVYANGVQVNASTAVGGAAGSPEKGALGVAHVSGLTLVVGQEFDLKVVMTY

IC50 (maltase): > 1000 µM | IC50 (sucrase): > 1000 µM | residual enzymatic activity of human β-glucocerebrosidase [1]: double | α-Mannosidase inhibition (α-Mannosidase; type 1-3 Gaucher fibroblasts): no inhibition | IC50 (rice α-glucosidase): > 1000 µM | IC50 [5]: 800 µM | IC50 (isomaltase): > 1000 µM | IC50 ([6]; human enzyme): 6.8 nM | times more active than N-nonyl-1-deoxynojirimycin 2′ ([6]; human β-glucocerebrosidase): 150 times | Ki ([6]; read-out: inhibition constant (Ki) human β-glucocerebrosidase): 2 nM | IC50 [7]: 1.9 µM | α-Glucosidases inhibition (α-Glucosidase; type 1-3 Gaucher fibroblasts): no inhibition
Compound: CCCCCCCCC[C@H]1NC[C@@H](O)[C@H](O)[C@H]1O [Compound 1′a, α-1-C-nonyliminoxylitol]
Increase in the enzymatic activity (type 1 fibroblasts) (β-glucocerebrosidase [2]): 1.8 | Increase in the enzymatic activity (type 1 fibroblasts) (β-glucocerebrosidase [2]; listed as drawing 105): ×1.8 to 10 nM | action on other lysosomal glycosidases ([3]; 10 nM): without inhibiting the action of other lysosomal glycosidases | Effects on the activity of other glycosidases [3]: No effect | activity on the different α-glucosidases tested (α-glucosidases): no activity | Increase in the enzymatic activity (type 3 fibroblasts) (β-glucocerebrosidase [4]): 1.9 | Increase in the enzymatic activity (type 3 fibroblasts) (β-glucocerebrosidase [4]; listed as drawing 105): ×1.9 to 10 nM

Compound: CCCCCCCCCN1C[C@H](O)[C@@H](O)[C@H](O)[C@H]1CO [2′, N-nonyl-1-deoxynojirimycin, reference compound]
IC50 (maltase): 1.3 µM | IC50 (sucrase): 0.66 µM | α-Mannosidase inhibition (α-Mannosidase; type 1 Gaucher fibroblasts): slight inhibition | α-Mannosidase inhibition (α-Mannosidase; [8]): slight inhibition | α-Mannosidase inhibition (α-Mannosidase; type 3 Gaucher fibroblasts): no inhibition | Effects on the activity of other glycosidases [3]: Marked effects | IC50 (rice α-glucosidase): 0.08 µM | IC50 [5]: 80 µM | IC50 (isomaltase): 0.23 µM | IC50 [7]: 150 µM | inhibition at 50 µM (α-Glucosidase; type 1 Gaucher fibroblasts, 50 μM): 70% | α-Glucosidase inhibition (α-Glucosidase; [8]): significant inhibition | α-Glucosidase inhibition (α-Glucosidase; type 3 Gaucher fibroblasts): significant inhibition

Ki ([6]; human enzyme, Table 1, read-out: value of Ki β-glucocérébrosidase (in brackets)): 31 nM | IC50 ([6]; human enzyme): 12 nM
Compound: CCCCCCCCCCCC[C@H]1NC[C@@H](O)[C@H](O)[C@H]1O [Compound 1′b]
